From PubChem BioAssay (NCI)
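Method: 48-hour compound exposure of cells in 96-well plates, five concentrations, linear interpolation of endpoints. GI50: concentration for 50% inhibition of growth. TGI denotes the concentration required for complete inhibition of growth.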

Key:
Test in all cases: inhibition of tumour cell growth, NCI panel, 48 h
ACHN renal = tested on: ACHN renal
CCRF-CEM leukemia = tested on: CCRF-CEM leukemia
COLO 205 colon = tested on: COLO 205 colon
OVCAR-5 ovarian = tested on: OVCAR-5 ovarian
SK-MEL-28 melanoma = tested on: SK-MEL-28 melanoma
SW-620 colon = tested on: SW-620 colon
T-47D breast = tested on: T-47D breast
TK-10 renal = tested on: TK-10 renal
UACC-257 melanoma = tested on: UACC-257 melanoma
UO-31 renal = tested on: UO-31 renal

SMILES	GI50 (ACHN renal)	TGI (ACHN renal)	GI50 (CCRF-CEM leukemia)	TGI (CCRF-CEM leukemia)	GI50 (COLO 205 colon)	TGI (COLO 205 colon)	GI50 (OVCAR-5 ovarian)	TGI (OVCAR-5 ovarian)	GI50 (SK-MEL-28 melanoma)	TGI (SK-MEL-28 melanoma)	GI50 (SW-620 colon)	TGI (SW-620 colon)	GI50 (T-47D breast)	TGI (T-47D breast)	GI50 (TK-10 renal)	TGI (TK-10 renal)	GI50 (UACC-257 melanoma)	TGI (UACC-257 melanoma)	GI50 (UO-31 renal)	TGI (UO-31 renal)
N#CC1=C(N)Oc2c(sc3c(Br)cccc23)C1c1ccc(Br)cc1 (stereo not given)	0.912 µM	9.37 µM	0.496 µM	13.6 µM	0.406 µM	1.88 µM	3.12 µM	14.3 µM	1.44 µM	13.3 µM	1.55 µM	15.1 µM	0.397 µM	4.67 µM	0.986 µM	2.57 µM	1.19 µM	15.4 µM	1.95 µM	11.8 µM
CC(C)c1c(O)ccc2c1CCC1C(C)(C)CCCC21C (stereo not given)		30.8 µM		49.3 µM		32 µM		28.1 µM		38.1 µM		40.1 µM		5.75 µM		35.8 µM		32.2 µM		31.4 µM
COc1ccc(-n2cc(-c3cc(OC)c(OC)c(OC)c3)nc2SCc2ccccc2)cc1OC	> 92.9 µM	> 100 µM	> 100 µM	> 100 µM	69.3 µM	> 100 µM	> 100 µM	> 100 µM	> 100 µM	> 100 µM	> 100 µM	> 100 µM	12.3 µM	> 100 µM	> 100 µM	> 100 µM	77.9 µM	> 100 µM	17.7 µM	> 100 µM
CCN1Cc2c(ccc(F)c2C#N)O[C@@H](C)CNC(=O)c2c(N)nn3ccc1nc23	0.676 µM	6.86 µM	3.74 µM	> 100 µM	0.815 µM	3.74 µM	2.87 µM	19.8 µM	1.82 µM	11.5 µM	3.87 µM	80.2 µM	2.78 µM	56.3 µM	1.29 µM	11.7 µM	2.63 µM	16.7 µM	1.14 µM	6.53 µM
Cc1cc(Cc2cc(C)cc(C(C)(C)C)c2O)c(O)c(Cc2cc(C)cc(C(C)(C)C)c2O)c1		11.3 µM		8.31 µM		9.17 µM		14.2 µM		16.7 µM		16.7 µM		11.3 µM		8.59 µM		5.3 µM		10.4 µM
OC(CNCC1CCCO1)Cn1c2ccc(Cl)cc2c2cc(Cl)ccc21 (stereo not given)	1.68 µM	3.16 µM	2.28 µM	4.99 µM	1.92 µM	3.61 µM	1.89 µM	3.61 µM	1.67 µM	3.15 µM	1.7 µM	3.38 µM	1.91 µM	3.89 µM	2.05 µM	3.75 µM	1.64 µM	3.13 µM	1.61 µM	3.15 µM
S=c1ssc(Oc2ccccc2)c1Cl	4.5 µM	16.1 µM	1.02 µM	5.84 µM	23 µM	47.5 µM	23.2 µM	49.9 µM	11.9 µM	32 µM	1.9 µM	5.24 µM	21.5 µM	43 µM	3 µM	9.68 µM	17.6 µM	35.5 µM	19 µM	58.8 µM
FC(F)(F)c1ccc(C#Cc2ccccc2C#Cc2ccccc2)cc1	40.9 µM	> 100 µM	26 µM	61.6 µM	34.3 µM	> 100 µM	48.7 µM	> 100 µM	> 100 µM	> 100 µM	30.6 µM	> 100 µM	26.2 µM	60.1 µM	31.7 µM	> 100 µM	69.5 µM	> 100 µM	49.7 µM	> 100 µM
CCCCCCCCCCC(C(O)c1ccccc1)N1CCCCC1 (stereo not given)	2.19 µM	4.95 µM	1.97 µM	7.77 µM	1.54 µM	2.93 µM	2.47 µM	6.85 µM	1.83 µM	3.32 µM	1.7 µM	3.21 µM	1.91 µM	4.35 µM	2.16 µM	4.83 µM	2.02 µM	4.28 µM	1.24 µM	2.84 µM
O=C1C2C(c3ccccc3)NC(c3ccccc3)C1C(c1ccccc1)NC2c1ccccc1 (stereo not given)		> 100 µM		> 100 µM		> 100 µM		> 100 µM		> 100 µM		> 100 µM		> 100 µM		> 100 µM		> 100 µM		> 100 µM
CNC(=O)CC1NC(=O)c2csc(n2)-c2ccc(-c3nc(C4=NC(C(=O)N5CCCC5C(N)=O)CO4)cs3)nc2-c2csc(n2)-c2csc(n2)C(C(C)C)NC(=O)CNC(=O)c2csc(n2)C(C(C)C)NC(=O)c2nc1sc2C (stereo not given)	> 25 µM	> 25 µM	> 25 µM	> 25 µM	> 25 µM					> 25 µM	> 25 µM	> 25 µM	> 25 µM	> 25 µM	> 25 µM		> 25 µM	> 25 µM	> 25 µM	> 25 µM
CCOC(=O)/C(=C\c1ccc(C#N)cc1)C(C)=O		68.6 µM		> 100 µM		> 100 µM		> 100 µM				> 100 µM		68.2 µM		57.1 µM		43.2 µM		28 µM
CC[C@@]1(OC(=O)CN)C(=O)OCc2c1cc1n(c2=O)Cc2cc3c(N)cccc3nc2-1	< 0.01 µM	0.0287 µM	< 0.01 µM	> 100 µM	0.392 µM	2.66 µM	0.045 µM	1.12 µM	0.557 µM	> 20.1 µM	0.0247 µM	3.78 µM	< 0.01 µM	> 100 µM	1.31 µM	> 21.6 µM	0.0774 µM	1.5 µM		
NC1=C(c2nc(-c3ccccc3)cs2)C(c2ccc(Br)cc2)c2c(c3ccccc3oc2=O)O1 (stereo not given)	129 µg/mL	> 150 µg/mL	66.9 µg/mL	> 150 µg/mL	78.1 µg/mL	> 150 µg/mL	> 150 µg/mL	> 150 µg/mL	79.9 µg/mL	> 150 µg/mL	73.9 µg/mL	> 150 µg/mL	44.3 µg/mL	> 150 µg/mL	> 150 µg/mL	> 150 µg/mL	> 150 µg/mL	> 150 µg/mL		
